“And” between values parts separate entries of the source, which are not always exact repeats. Identical values can stand only once.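 All cell lines were grown in 96-well plates and treated with compound for 48 hours. GI50 is the concentration that inhibits growth by half. TGI marks complete inhibition of growth.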
Key:
Assay in all cases: NCI-60 cell line screen, 48 h
A549 NSCLC = test system: A549 NSCLC
UACC-62 melanoma = test system: UACC-62 melanoma
RPMI-8226 leukemia = test system: RPMI-8226 leukemia
SW-620 colon = test system: SW-620 colon
SK-OV-3 ovarian = test system: SK-OV-3 ovarian
CAKI-1 renal = test system: CAKI-1 renal
HT29 colon = test system: HT29 colon
HL-60(TB) leukemia = test system: HL-60(TB) leukemia
BT-549 breast = test system: BT-549 breast
PC-3 prostate = test system: PC-3 prostate

c1ccc(C2OC3(CCC[C@H]4C[C@H]43)O[C@H]2c2ccccc2)cc1 (stereo partly drawn)
TGI (A549 NSCLC): > 100 µM | TGI (UACC-62 melanoma): > 100 µM | TGI (RPMI-8226 leukemia): 96.9 µM | TGI (SW-620 colon): > 100 µM | TGI (SK-OV-3 ovarian): > 100 µM | TGI (CAKI-1 renal): 74.7 µM | TGI (HT29 colon): > 100 µM | TGI (HL-60(TB) leukemia): 41.1 µM

C=C/C=C/[C@@H](O)CC(=C)C[C@H]1OC2[C@H](C)[C@@H](OC(=O)C[C@H]3C[C@H](OC(C)=O)C[C@@]4(C[C@@](C)(O)C[C@H](CC(=C)[C@@H](C)[C@H](OC(C)=O)[C@H](C)C(=O)C[C@@H]5C[C@H](OC)CC6(C[C@@H](O)C[C@H](/C=C\CCC[C@H]7O[C@](O)(C=C[C@H]7C)[C@H]2O)O6)O5)O4)O3)[C@@H]1O
GI50 (BT-549 breast): 0.0025 µM | TGI (BT-549 breast): > 25 µM | GI50 (RPMI-8226 leukemia): 0.0025 µM | TGI (RPMI-8226 leukemia): 0.0821 µM | GI50 (SW-620 colon): 0.00123 µM and 0.0025 µM | TGI (SW-620 colon): > 25 µM | GI50 (SK-OV-3 ovarian): 0.000465 µM and 0.0025 µM | GI50 (CAKI-1 renal): 0.00538 µM and 0.0025 µM | GI50 (PC-3 prostate): 0.0025 µM | TGI (PC-3 prostate): > 25 µM | GI50 (HT29 colon): 0.0025 µM

COC(=O)c1ccc(CN2C(=O)C(Cl)=C(Nc3cccc(Cl)c3C)C2=O)cc1
GI50 (A549 NSCLC): 37.2 µM | TGI (A549 NSCLC): > 100 µM | GI50 (UACC-62 melanoma): 13.4 µM | TGI (UACC-62 melanoma): > 100 µM | GI50 (RPMI-8226 leukemia): 3.76 µM | TGI (RPMI-8226 leukemia): 48.2 µM | GI50 (SW-620 colon): 3.45 µM | TGI (SW-620 colon): 26.4 µM | GI50 (SK-OV-3 ovarian): > 100 µM | TGI (SK-OV-3 ovarian): > 100 µM | GI50 (CAKI-1 renal): 26.5 µM | TGI (CAKI-1 renal): 71.6 µM | GI50 (PC-3 prostate): 37.6 µM | TGI (PC-3 prostate): > 100 µM | GI50 (HT29 colon): 4.85 µM | TGI (HT29 colon): > 100 µM

NC(=O)c1cc([N+](=O)[O-])c(Cl)c([N+](=O)[O-])c1Cl
GI50 (A549 NSCLC): 1.88 µM | TGI (A549 NSCLC): 3.8 µM | GI50 (UACC-62 melanoma): 1.39 µM | TGI (UACC-62 melanoma): 2.85 µM | GI50 (BT-549 breast): 3.41 µM | TGI (BT-549 breast): 12.6 µM | GI50 (RPMI-8226 leukemia): 0.661 µM | TGI (RPMI-8226 leukemia): 3.61 µM | GI50 (SW-620 colon): 0.291 µM | TGI (SW-620 colon): 1.07 µM | GI50 (SK-OV-3 ovarian): 4.21 µM | TGI (SK-OV-3 ovarian): 14.5 µM | GI50 (CAKI-1 renal): 1.84 µM | TGI (CAKI-1 renal): 3.72 µM | GI50 (PC-3 prostate): 1.58 µM | TGI (PC-3 prostate): 3.1 µM | GI50 (HT29 colon): 0.308 µM | TGI (HT29 colon): 1.05 µM

C[CH2][Ge]([CH2]C)([CH2]C)[O]C(=O)C(OC(C)=O)c1ccccc1 (stereo not drawn)
GI50 (A549 NSCLC): > 100 µM | TGI (A549 NSCLC): > 100 µM | GI50 (UACC-62 melanoma): > 100 µM | TGI (UACC-62 melanoma): > 100 µM | GI50 (RPMI-8226 leukemia): 31 µM | TGI (RPMI-8226 leukemia): > 100 µM | GI50 (SW-620 colon): > 100 µM | TGI (SW-620 colon): > 100 µM | GI50 (SK-OV-3 ovarian): > 100 µM | TGI (SK-OV-3 ovarian): > 100 µM | GI50 (CAKI-1 renal): > 100 µM | TGI (CAKI-1 renal): > 100 µM | GI50 (HT29 colon): > 100 µM | TGI (HT29 colon): > 100 µM

ClC/C=C/COC1CCCCO1 (stereo not drawn)
TGI (A549 NSCLC): > 100 µM | TGI (UACC-62 melanoma): > 100 µM | TGI (RPMI-8226 leukemia): > 100 µM | TGI (SW-620 colon): > 100 µM | TGI (SK-OV-3 ovarian): > 100 µM | TGI (CAKI-1 renal): > 100 µM | TGI (HT29 colon): > 100 µM | TGI (HL-60(TB) leukemia): 51.4 µM

COC(=O)N/N=C(\C)c1c(O)cc(C)oc1=O
TGI (A549 NSCLC): > 100 µM | TGI (UACC-62 melanoma): > 100 µM | TGI (SW-620 colon): > 100 µM | TGI (SK-OV-3 ovarian): > 100 µM | TGI (HT29 colon): > 100 µM | TGI (HL-60(TB) leukemia): > 100 µM

COc1ccc2c3c([nH]c2c1[N+](=O)[O-])C(C)N(Cc1ccccc1)CC3 (stereo not drawn)
TGI (A549 NSCLC): > 100 µM | TGI (UACC-62 melanoma): > 100 µM | TGI (RPMI-8226 leukemia): 7.56 µM | TGI (SW-620 colon): > 100 µM | TGI (CAKI-1 renal): > 100 µM | TGI (HT29 colon): 13.7 µM | TGI (HL-60(TB) leukemia): 6.1 µM

CC1=C(/C=C/C(C)=C/C2CC(N(C)C)=CC(=O)O2)C(C)(C)CCC1 (stereo not drawn)
TGI (A549 NSCLC): 22.3 µM | TGI (UACC-62 melanoma): 27 µM | TGI (RPMI-8226 leukemia): 19.3 µM | TGI (SW-620 colon): 31.1 µM | TGI (SK-OV-3 ovarian): 30.3 µM | TGI (CAKI-1 renal): 37.1 µM | TGI (HT29 colon): 27.9 µM | TGI (HL-60(TB) leukemia): 16 µM

Cc1ccc(S(=O)(=O)SC(C)(C)C)cc1
TGI (A549 NSCLC): > 100 µM | TGI (UACC-62 melanoma): 48.6 µM | TGI (BT-549 breast): 42.3 µM | TGI (RPMI-8226 leukemia): 46.4 µM | TGI (SW-620 colon): 47.9 µM | TGI (SK-OV-3 ovarian): > 100 µM | TGI (CAKI-1 renal): 41.4 µM | TGI (HT29 colon): 34.8 µM | TGI (HL-60(TB) leukemia): 40.7 µM

O=C1CC(c2cccc(F)c2)Nc2cc3c(cc21)OCO3 (stereo not drawn)
GI50 (A549 NSCLC): < 0.01 µM | TGI (A549 NSCLC): > 100 µM | GI50 (UACC-62 melanoma): < 0.01 µM | TGI (UACC-62 melanoma): < 0.01 µM | TGI (RPMI-8226 leukemia): 0.162 µM | GI50 (SW-620 colon): < 0.01 µM | TGI (SW-620 colon): > 100 µM | GI50 (SK-OV-3 ovarian): 0.0111 µM | TGI (SK-OV-3 ovarian): > 100 µM | GI50 (CAKI-1 renal): < 0.01 µM | TGI (CAKI-1 renal): > 100 µM | GI50 (PC-3 prostate): < 0.01 µM | TGI (PC-3 prostate): > 100 µM | TGI (HT29 colon): 0.0667 µM

CC(=O)c1c2c(cc3c1CC1(C3)Cc3cc4c(c(C(C)=O)c3C1)CCC4)CCC2
TGI (A549 NSCLC): > 100 µM | TGI (UACC-62 melanoma): > 100 µM | TGI (SW-620 colon): > 100 µM | TGI (CAKI-1 renal): > 100 µM | TGI (HT29 colon): > 100 µM | TGI (HL-60(TB) leukemia): > 100 µM

C[C@]12CC[C@H]3[C@@H](CC=C4C[C@@H](N5CCCC5)CC[C@@]43C)[C@@H]1C/C(=C\c1cccc(OCCN3CCOCC3)c1)[C@@H]2O
GI50 (A549 NSCLC): 3.48 µM | TGI (A549 NSCLC): 45.4 µM | GI50 (UACC-62 melanoma): 17.6 µM | TGI (UACC-62 melanoma): 33.2 µM | GI50 (BT-549 breast): 2.33 µM | TGI (BT-549 breast): > 100 µM | GI50 (SW-620 colon): 2.82 µM | TGI (SW-620 colon): 18.8 µM | GI50 (SK-OV-3 ovarian): 17.2 µM | TGI (SK-OV-3 ovarian): 35.1 µM | GI50 (CAKI-1 renal): 6.91 µM | TGI (CAKI-1 renal): > 100 µM | GI50 (HT29 colon): 0.532 µM | TGI (HT29 colon): 15.7 µM | GI50 (HL-60(TB) leukemia): 4.32 µM | TGI (HL-60(TB) leukemia): > 100 µM

O=C(/C=C/c1ccccc1F)c1ccc(Cl)c(Cl)c1
TGI (A549 NSCLC): > 100 µM | TGI (UACC-62 melanoma): > 100 µM | TGI (RPMI-8226 leukemia): > 75.6 µM | TGI (SW-620 colon): > 66.3 µM | TGI (SK-OV-3 ovarian): > 100 µM | TGI (CAKI-1 renal): > 80.2 µM | TGI (HT29 colon): > 75.2 µM | TGI (HL-60(TB) leukemia): 51.4 µM

COc1cc(/C=C/C(=O)/C=C/c2ccc(-n3ccnc3C)cc2)ccc1O
GI50 (A549 NSCLC): 3.22 µM | TGI (A549 NSCLC): > 100 µM | GI50 (UACC-62 melanoma): 4.49 µM | TGI (UACC-62 melanoma): 21.3 µM | GI50 (BT-549 breast): 1.97 µM | TGI (BT-549 breast): 4.82 µM | GI50 (RPMI-8226 leukemia): 1.84 µM | TGI (RPMI-8226 leukemia): 6.1 µM | GI50 (SW-620 colon): 2.23 µM | TGI (SW-620 colon): 5.63 µM | GI50 (SK-OV-3 ovarian): 8.14 µM | TGI (SK-OV-3 ovarian): > 100 µM | GI50 (CAKI-1 renal): 3.06 µM | TGI (CAKI-1 renal): 10.9 µM | GI50 (HT29 colon): 1.95 µM | TGI (HT29 colon): 3.9 µM | GI50 (HL-60(TB) leukemia): 3.26 µM | TGI (HL-60(TB) leukemia): 32.5 µM

CC1=C(C(=O)Nc2ccccc2)C(c2cccc3ccccc23)C(C(=O)Nc2ccccc2)=C(C)N1
TGI (A549 NSCLC): 82 µM | TGI (UACC-62 melanoma): 27.8 µM | TGI (SW-620 colon): 55.1 µM | TGI (SK-OV-3 ovarian): 38.5 µM | TGI (CAKI-1 renal): 38.2 µM | TGI (HT29 colon): 36.2 µM | TGI (HL-60(TB) leukemia): 40 µM

CN(c1ccc(C(=O)c2ccc(N(C)S(C)(=O)=O)cc2)cc1)S(C)(=O)=O
TGI (A549 NSCLC): > 100 µM | TGI (UACC-62 melanoma): > 100 µM | TGI (RPMI-8226 leukemia): > 100 µM | TGI (SW-620 colon): > 100 µM | TGI (SK-OV-3 ovarian): > 100 µM | TGI (CAKI-1 renal): > 100 µM | TGI (HT29 colon): > 100 µM | TGI (HL-60(TB) leukemia): > 100 µM

O=C1C=CC=C/C1=C1/SC(c2ccccc2)=C(O)N1c1ccccc1
TGI (A549 NSCLC): > 100 µM | TGI (UACC-62 melanoma): > 100 µM | TGI (SW-620 colon): > 100 µM | TGI (SK-OV-3 ovarian): > 100 µM | TGI (CAKI-1 renal): > 100 µM | TGI (HT29 colon): > 100 µM

O=S(=O)(O)c1cc(O)c(N=Nc2ccc(O)cc2O)c2ccccc12
TGI (A549 NSCLC): > 100 µM | TGI (RPMI-8226 leukemia): > 100 µM | TGI (SW-620 colon): > 100 µM | TGI (SK-OV-3 ovarian): > 100 µM | TGI (CAKI-1 renal): > 100 µM | TGI (PC-3 prostate): > 100 µM | TGI (HT29 colon): > 100 µM | TGI (HL-60(TB) leukemia): > 100 µM

O=C(O)[C@H](NS(=O)(=O)c1ccc(F)cc1)c1ccccc1
TGI (A549 NSCLC): > 100 µM | TGI (UACC-62 melanoma): > 100 µM | TGI (RPMI-8226 leukemia): > 100 µM | TGI (SW-620 colon): > 100 µM | TGI (SK-OV-3 ovarian): > 100 µM | TGI (CAKI-1 renal): > 100 µM | TGI (HT29 colon): > 100 µM

Source: PubChem BioAssay (NCI)
